In patent US6420393B1, “Cyclopentabenzofuran derivatives and their use” (Bayer Aktiengesellschaft, priority 1998, dated 2002):
Like-named read-outs stand apart in the source and are kept apart here.

How the values were obtained:
[1] = tested on: NF-κB-mediated TNFα synthesis in human monocytes; experiment: cells; type: cell-based; details: Monocyte, LPS 125 ng/ml, 18 hours, TNFα ELISA, read-out: IC50 (inhibition of NF-κB-mediated TNFα synthesis)
[2] = tested on: human tissue factor promoter (luciferase) in RAW-A3 cells (RAW 264.7 transfectant); experiment: Inhibition of NF-κB-mediated expression of the human tissue factor gene: promoter-luciferase reporter in RAW-A3 monocyte cells; type: cell-based; details: read-out: IC50 (tissue factor promoter-driven luciferase activity)
Method: Inhibition of the NF-κB-mediated Gene Expression of the Human Tissue Factor Gene in Monocytes
Therefore, for the further detection of the inhibition of the NFκB-mediated gene expression by the inhibitors according to the invention, the following biological test was carried out:
The promoter fragment of the human tissue factor gene which contains the NF-κB binding sequence was cloned with oligonucleotide primers of the sequence 5′-TCCCTCGAGATCTCCCAGAGGCAAACTGCCAGAT-3′ (5′ primer of position −925) and 5′-TCCTCGAGCCATGGCTACCAGTTGGGCGGCGAGATC-3′ (3′ primer containing the ATG start codon of the coding sequence of the tissue factor gene) by means of the polymerase chain reaction (PCR) and fused by means of an NcoI/XhoI cloning with the luciferase start codon in the plasmid pGL3-basic vector (Promega Corp. 2800 Woods Hollow Road, Madison, Wis. 53711-5399 USA). […]
After a further 6 hours, the culture supernatant is aspirated and the cells are processed for the measurement of the luciferase activity according to the procedure of the “Luciferase Assay System” (Technical Bulletin of Promega, 2800 Woods Hollow Road, Madison, Wis. 53711-5399 USA. Products E4030, E1483, E1501). The cell lyzate is incubated with the luciferase assay substrate and measured in a luminometer to measure the emitted light. […]

[3] = tested on: NF-κB-mediated TNFα synthesis in human monocytes; experiment: cells; type: cell-based; details: Monocyte, 100 nM PMA, read-out: IC50 value after PMA stimulus (TNFα synthesis)
[4] = tested on: adhesion of human neutrophils to TNF-α-stimulated HUVEC cells; experiment: ELAM-dependent adhesion of human neutrophils to TNF-α-stimulated HUVEC; type: cell-based
Method: (§1) The influence of compound I-3-R on the expression of ELAM-1 was checked in two different test batches. In one functional batch, the adhesion of human neutrophils to TNF-α-stimulated HUVEC cells was measured. The expression of ELAM-1 on the surface of the HUVECs was determined using a fluorescence-labeled ELAM-1-specific monoclonal antibody by means of FACS (cell sorting) analysis.
Experimental Procedure: ELAM-dependent Neutrophil Adhesion to Endothial Cells
The neutrophils were isolated from human blood (100 ml). To this end, 3.5 ml of Polyprep was introduced into a centrifuge bucket and carefully coated with 5 ml of blood. After centrifuging at 2100 min^−1 for 30 minutes, the neutrophil band in the center of the centrifuge bucket was aspirated. After 1:2 dilutions in Clonetics endothelial cell basal medium (EBM), the neutrophils were again centrifuged at 1000 min^−1 for 20 minutes and then made up to a cell concentration of 10^6 cells/ml.
The umbilical cord endothelial cells were grown to confluence in EBM+10% FCS in 96 well microtiter plates. At the start of the experiment, the medium was replaced by EBM without FCS and the experimental substances then employed. After 20 minutes, the HUVECs were stimulated using 10 nM TNF-α. […] The fluorescence of the adherent neutrophils was then measured in a fluorescence photometer.

[5] = tested on: ELAM-1 expression in HUVECs; experiment: TNF-induced expression of ELAM-1 on HUVEC surface (FACS, anti-ELAM-1 antibody); type: cell-based, human
Method: Inhibition of the NF-κB-mediated Gene Expression of the Adhesion Protein ELAM-1 to Human Umbilical Cord Endothelial Cells (HUVEC)
as §1
Experimental Procedure Quantitative Measurement of the TNF-induced Expression of ELAM-1 in HUVECs
Umbilical cord endothelial cells (HUVEC) were cultured as described above and incubated for 4 hours in the presence or absence of test substances in the presence or absence of 10 ng/ml of TNF. […] After centrifuging and washing again, the cells were taken up in 1 ml of PBS plus 1% BSA and measured at 488 nm in a flow cytometer (Becton and Dickinson). The intensity of the fluorescence as a function of bound anti-ELAM-1 antibody per cell is measured by this process. 5000 cells were measured for each value.

[6] = tested on: interleukin-2 promoter (luciferase) in SS-1 cell line; experiment: Inhibition of interleukin-2 synthesis: interleukin-2 promoter-luciferase reporter cell line (SS-1), PMA/ionomycin induced; type: cell-based; details: IL-2 promoter reporter cell line, PMA 5 ng/ml + ionomycin, 24 hours; read-out: IC50 (inhibition of induction of luciferase activity to 50%)
Description: Inhibition of Interleukin-2 Synthesis
For the testing of the inhibitory action of cyclopentabenzene derivatives on interleukin-2 synthesis, a receptor gene cell line was used which contains the interleukin-2 promoter coupled to the luciferase gene. The promoter contains the DNA sequence from −480 to +4. The vector employed is pGL3; the starting cell line in which the total construct has been stably transfected is SS-1. The culture medium for this cell line was RPMI 1640 (Gibco, Rockille). It additionally contained: 100 μg/ml of streptomycin, 100 U/ml of penicillin, 2 mM L-glutamine, 10% heat-inactivated FBS and 800 μg/ml of G418 sulfate.
The reporter gene test cell line was inoculated into 96-well plates to 1×10^6 cells per well in Phenol Red-free RPMI with the additives and incubated at 37° C. in an atmosphere of 5% CO2, 95% air with phorbol 12-myristate 13-acetate (PMA; 5 ng/ml) and ionomycin ([…]; 0.4 μg/ml) for 24 hours. The test substances were added simultaneously with PMA.
For the generation of the luminescence, LucLite™ solution (Packard, Meriden, Conn.) was added to a concentration of 100 μl/well and the luminescence was measured in a luminometer (Luminoskan, Labsystems) immediately after addition.

## COc1ccc([C@@]23Oc4cc(OC)cc(OC)c4[C@]2(O)[C@@H](O)C[C@H]3c2ccccc2)cc1 (racemic) [Example I-1, (1α,3α,3aα,8bα)-3,3a-dihydro-6,8-dimethoxy-3a-(4-methoxyphenyl)-3-phenyl-1H-cyclopenta[b]benzofuran-1,8b(2H)-diol]
[1]
  IC50: 500 nM
[2]; RAW264.7, RAW-A3 cells, induction with 15% serum, 6 hours
  IC50: 20000 nM
[3]
  IC50: 100 nM

## COc1ccc([C@@]23Oc4cc(OC)cc(OC)c4[C@]2(O)[C@H](O)C[C@H]3c2ccccc2)cc1 (racemic) [Example I-3-R]
[1]
  IC50: 100 nM
[4]; 10 nM TNF-α, 4 hours, inhibited to 50%
  Inhibition of adhesion of neutrophils to TNF-α-stimulated HUVECs: 50%
[4]; neutrophil adhesion to TNF-α-stimulated HUVECs
  Concentration at which maximum inhibition of cell adhesion was determined: 50 nM
[5]; HUVEC, 10 ng/ml TNF, 4 hours, FACS, all concentrations investigated
  Completeness of inhibition of ELAM-1 expression: completely inhibited at none of the concentrations investigated
[5]; TNF-α-stimulated HUVECs, inhibited to 50%
  Inhibition of expression of ELAM-1 on the cell surface (maximum inhibition): 50%
[6]
  IC50: 5 to 10 nM

## COC(=O)CN[C@@H]1C[C@@H](c2ccccc2)[C@]2(c3ccc(OC)cc3)Oc3cc(OC)cc(OC)c3[C@]12O [Example I-5, methyl (1α,3β,3aβ,8bβ)-N-(3,3a-dihydro-6,8-dimethoxy-3a-(4-methoxyphenyl)-3-phenyl-cyclopenta[b]benzofuran-8b(2H)-ol-1-yl)-2-aminoacetate]
[1]
  IC50: 500 nM
[2]; RAW264.7, 6 h
  IC50: 2000 nM
[3]
  IC50: 90 nM
